These are literature values, as cited in patent US20260108469A1, “COMPOSITIONS COMPRISING WATER INSOLUBLE DRUGS AND METHODS OF PRODUCING AND USING SAME” (priority 2023, published 2026).

On to `CCc1c2c(nc3ccc(O)cc13)-c1cc3c(c(=O)n1C2)COC(=O)[C@]3(O)CC` [SN-38, 7-ethyl-10-hydroxycamptothecin], for which the “solubility in water-based solutions” value is recorded as “not soluble in water-based solutions”.

As to “CVKRGLKLRHVRPRVTRMDV (cell penetrating peptide (CPP)) [20 amino acid cell penetrating peptide, DPV1047 with an added N-terminal Cys]”, the solubility in water (water) is reported as above 500 mg/mL.
